pKd: −log10 of the molar value.
Assays:
[1] = target: GDP-bound KRAS wild-type protein (Homo sapiens, UniProt P01116); assay: Binding to KRAS by surface plasmon resonance (SPR), Single Cycle Kinetics; details: SPR Single Cycle Kinetics, GDP-bound KRAS wild-type protein, 1:1 binding model; read-out: KRAS KD
[2] = target: GDP-bound NRAS wild-type protein (Homo sapiens, UniProt P01111); assay: Binding to NRAS by surface plasmon resonance (SPR), Single Cycle Kinetics; details: SPR, GDP-bound NRAS wild-type protein vs GDP-bound KRAS wild-type protein
GDP-bound NRAS wild-type protein, sequence (P01111 whole entry): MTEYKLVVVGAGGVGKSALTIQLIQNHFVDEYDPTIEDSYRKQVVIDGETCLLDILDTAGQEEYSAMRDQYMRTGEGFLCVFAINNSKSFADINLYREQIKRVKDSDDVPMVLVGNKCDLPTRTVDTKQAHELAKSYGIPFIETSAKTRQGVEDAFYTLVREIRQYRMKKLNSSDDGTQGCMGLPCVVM

[3] = target: GDP-bound HRAS wild-type protein (Homo sapiens, UniProt P01112); assay: Binding to HRAS by surface plasmon resonance (SPR), Single Cycle Kinetics; details: SPR, GDP-bound HRAS wild-type protein vs GDP-bound KRAS wild-type protein
GDP-bound HRAS wild-type protein, sequence (P01112 whole entry): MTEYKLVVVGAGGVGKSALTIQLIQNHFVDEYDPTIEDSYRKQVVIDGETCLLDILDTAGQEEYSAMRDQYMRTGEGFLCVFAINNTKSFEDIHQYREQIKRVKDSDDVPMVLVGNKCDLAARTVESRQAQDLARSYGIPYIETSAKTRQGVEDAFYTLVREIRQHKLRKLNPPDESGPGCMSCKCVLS

GDP-bound KRAS wild-type protein, sequence (P01116 whole entry): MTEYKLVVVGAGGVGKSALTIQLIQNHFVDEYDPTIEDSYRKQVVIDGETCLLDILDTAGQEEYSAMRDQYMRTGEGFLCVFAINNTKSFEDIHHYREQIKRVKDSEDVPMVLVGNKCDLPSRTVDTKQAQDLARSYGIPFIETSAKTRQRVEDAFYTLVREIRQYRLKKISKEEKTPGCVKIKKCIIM

SMILES | pKd [1] | NRAS/KRAS (ratio of KD value with respect to NRAS to KD value with respect to KRAS) [2] | HRAS/KRAS (ratio of KD value with respect to HRAS to KD value with respect to KRAS) [3]
CC[C@H](C)[C@@H]1NC(=O)[C@H](CC(C)C)N(C)C(=O)C[C@@H](C(=O)N2CCOCC2)N(C)C(=O)[C@H](C2CCCC2)N(C)C(=O)C2(CCCC2)NC(=O)[C@@H]2CCCN2C(=O)[C@H](CCc2ccc(C(F)(F)F)c(Cl)c2)NC(=O)CN(C)C(=O)[C@H](Cc2ccc(OC(F)(F)F)cc2)N2CCCCC[C@@H](C2=O)N(C)C(=O)CN(C)C1=O [PP0615] | 8.21 | B (a compound having 3 or more and less than 10 is denoted as B) | B (a compound having 3 or more and less than 10 is denoted as B)
CC[C@H](C)[C@@H]1NC(=O)[C@@H](CC(C)C)N(C)C(=O)C[C@@H](C(=O)N(C)C)N(C)C(=O)[C@@H](C2CCCC2)N(C)C(=O)C2(CCCC2)NC(=O)[C@@H]2CCCN2C(=O)[C@H](CCc2ccc(C(F)(F)F)c(Cl)c2)NC(=O)CN(C)C(=O)[C@@H](Cc2ccc(C)cc2)N2CC/C=C\CCN(CC2=O)C(=O)CN(C)C1=O [PP0618] | 8.21 | C (A compound having a KD ratio of 0.1 or more and less than 3 is denoted as C) | C (A compound having a KD ratio of 0.1 or more and less than 3 is denoted as C)
CC[C@H](C)[C@@H]1NC(=O)[C@H](CC(C)C)N(C)C(=O)C[C@@H](C(=O)N(C)C)N(C)C(=O)[C@H](C2CCCC2)N(C)C(=O)C2(CCCC2)NC(=O)[C@@H]2CCCN2C(=O)[C@H](CCc2ccc(C(F)(F)F)c(Cl)c2)NC(=O)CN(C)C(=O)[C@H](Cc2ccc(C(F)(F)F)cc2)N2CC/C=C\COC[C@@H](C2=O)N(C)C(=O)CN(C)C1=O [PP0622] | 7.96 | B (a compound having 3 or more and less than 10 is denoted as B) | B (a compound having 3 or more and less than 10 is denoted as B)
CCO[C@@H]1C[C@H]2C(=O)NC3(CCC3)C(=O)N(C)[C@@H](C3CCCC3)C(=O)N(CC)[C@H](C(=O)N(C)C)CC(=O)N(C)[C@@H](CC)C(=O)N[C@@H]([C@@H](C)CC)C(=O)N(C)CC(=O)N(C)[C@H]3CCCCCN(C3=O)[C@@H](Cc3ccc(C(F)(F)F)cc3)C(=O)N(C)CC(=O)N[C@@H](CCc3cc(F)c(C(F)(F)F)c(F)c3)C(=O)N2C1 [PP0633] | 8.64 | B (a compound having 3 or more and less than 10 is denoted as B) | B (a compound having 3 or more and less than 10 is denoted as B)
CCO[C@@H]1C[C@H]2C(=O)NC3(CCC3)C(=O)N(C)[C@@H](C3CCCC3)C(=O)N(CCC3CCC3)[C@H](C(=O)N(C)C)CC(=O)N(C)[C@@H](CC)C(=O)N[C@@H]([C@@H](C)CC)C(=O)N(C)CC(=O)N(C)[C@H]3CCCCCN(C3=O)[C@@H](Cc3ccc(C(F)(F)F)cc3)C(=O)N(C)CC(=O)N[C@@H](CCc3cc(F)c(C(F)(F)F)c(F)c3)C(=O)N2C1 [PP0635] | 8.57 | B (a compound having 3 or more and less than 10 is denoted as B) | B (a compound having 3 or more and less than 10 is denoted as B)
CCO[C@@H]1C[C@H]2C(=O)NC3(CCC3)C(=O)N(C)[C@@H](C3CCCC3)C(=O)N(CCC3CCCC3)[C@H](C(=O)N(C)C)CC(=O)N(C)[C@@H](CC)C(=O)N[C@@H]([C@@H](C)CC)C(=O)N(C)CC(=O)N(C)[C@H]3CCCCCN(C3=O)[C@@H](Cc3ccc(C(F)(F)F)cc3)C(=O)N(C)CC(=O)N[C@@H](CCc3cc(F)c(C(F)(F)F)c(F)c3)C(=O)N2C1 [PP0636] | 8.07 | A (a compound having 10 or more and less than 20 is denoted as A) | A (a compound having 10 or more and less than 20 is denoted as A)
CCO[C@@H]1C[C@H]2C(=O)NC3(CCC3)C(=O)N(C)[C@@H](C3CCCC3)C(=O)N(CCc3ccccc3)[C@H](C(=O)N(C)C)CC(=O)N(C)[C@@H](CC)C(=O)N[C@@H]([C@@H](C)CC)C(=O)N(C)CC(=O)N(C)[C@H]3CCCCCN(C3=O)[C@@H](Cc3ccc(C(F)(F)F)cc3)C(=O)N(C)CC(=O)N[C@@H](CCc3cc(F)c(C(F)(F)F)c(F)c3)C(=O)N2C1 [PP0637] | 7.64 | B (a compound having 3 or more and less than 10 is denoted as B) | B (a compound having 3 or more and less than 10 is denoted as B)
CCCN1C(=O)[C@H](C2CCCC2)N(C)C(=O)C2(CCC2)NC(=O)[C@@H]2C[C@@H](OCC)CN2C(=O)[C@H](CCc2cc(F)c(C(F)(F)F)c(F)c2)NC(=O)CN(C)C(=O)[C@H](Cc2ccc(C(F)(F)F)cc2)N2CCCCC[C@@H](C2=O)N(C)C(=O)CN(C)C(=O)[C@H]([C@@H](C)CC)NC(=O)[C@H](CC(C)C)N(C)C(=O)C[C@H]1C(=O)N1CCOCC1 [PP0639] | 8.07 | B (a compound having 3 or more and less than 10 is denoted as B) | B (a compound having 3 or more and less than 10 is denoted as B)
